Legend:
Type in all cases: biochemical
TYK2 = target: T1, TYK2 (Homo sapiens, UniProt P29597); experiment: JAK kinase assay (HTRF, phosphorylation of synthetic peptide), TYK2; conditions: catalytic domain, ATP at Km (13 μM); read-out: TYK2 kinase inhibitory activity (EC50)
T1 construct: JAK1 (aa 850-1154) and TYK2 (aa 871-1187) are expressed with an N-terminally fused GST-tag; GST (N); purchased Carna Biosciences, Inc; host or cells: baculovirus expression system
T1 sequence (P29597 871-1187): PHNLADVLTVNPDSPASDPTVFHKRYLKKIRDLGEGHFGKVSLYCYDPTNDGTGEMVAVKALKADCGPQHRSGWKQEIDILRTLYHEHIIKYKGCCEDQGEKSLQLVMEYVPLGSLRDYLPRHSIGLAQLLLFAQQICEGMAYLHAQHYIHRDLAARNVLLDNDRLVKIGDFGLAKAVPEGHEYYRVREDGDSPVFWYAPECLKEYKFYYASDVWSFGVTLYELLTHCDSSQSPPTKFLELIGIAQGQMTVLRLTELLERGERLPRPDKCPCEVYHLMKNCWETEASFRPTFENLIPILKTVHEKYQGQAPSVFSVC
Description: (§1) Human baculovirus-expressed JAK1, 2, 3 and TYK2 were purchased from Carna Biosciences, Inc. All four purified enzymes contain only the catalytic domain. JAK1 (aa 850-1154) and TYK2 (aa 871-1187) are expressed with an N-terminally fused GST-tag, and JAK2 and JAK3 with an N-terminally fused His-tag.
(§2) Inhibition of phosphorylation of a synthetic peptide was measured in an HTRF-based assay using the TK substrate-Biotin from the Cisbio HTRFKinEASE TK kit. First, 2 μl of TK solution (TK substrate-biotin in kinase buffer [1× enzymatic buffer from HTRFKinEASE TK kit, 1 mM DTT]) is added to a plate containing 1 μl prediluted compound (final assay concentration DMSO: 0.75%). Then, 5 μl kinase-ATP mix (prepared in kinase buffer) is added to the wells and the plates are incubated at RT for 20-30 min. For all four kinases a concentration of ATP that corresponded to the Km for ATP was used. The final concentrations of buffers, substrate, kinase and ATP were: JAK1: 50 mM Hepes buffer pH 7.0, 0.01% BSA, 10 mM MgCl2, 1 mM DTT, 7 μM ATP, 50 nM SEB, 1 μM TK Substrate-Biotin and 5 ng JAK1; JAK2: 50 mM Hepes buffer pH 7.0, 0.01% BSA, 5 mM MgCl2, 1 mM DTT, 4 μM ATP, 1 μM TK Substrate-Biotin and 0.1 ng JAK2; JAK3: 50 mM Hepes buffer pH 7.0, 0.01% BSA, 5 mM MgCl2, 1 mM DTT, 2 μM ATP, 1 μM TK Substrate-Biotin and 0.3 ng JAK3; TYK2: 50 mM Hepes buffer pH 7.0, 0.01% BSA, 5 mM MgCl2, 1 mM DTT, 13 μM ATP, 50 nM SEB, 1 μM TK Substrate-Biotin and 0.8 ng TYK2. Thereafter, the kinase reaction is stopped by adding 4 μl detection mix (final concentrations: 50 mM Hepes buffer pH 7.0, 0.01% BSA, 0.8 M KF, 20 mM EDTA, 42 nM Streptavidin-XL665 and 1:400 STK Ab Cryptate) and the plates are incubated overnight in the dark. The HTRF signal is read using an Envision plate reader.

JAK1 = target: T2, JAK1 (Homo sapiens, UniProt P23458); experiment: JAK kinase assay (HTRF, phosphorylation of synthetic peptide), JAK1; conditions: catalytic domain, ATP at Km (7 μM); read-out: JAK1 kinase inhibitory activity (EC50)
T2 construct: JAK1 (aa 850-1154) and TYK2 (aa 871-1187) are expressed with an N-terminally fused GST-tag; GST (N); purchased Carna Biosciences, Inc; host or cells: baculovirus expression system
T2 sequence (P23458 850-1154): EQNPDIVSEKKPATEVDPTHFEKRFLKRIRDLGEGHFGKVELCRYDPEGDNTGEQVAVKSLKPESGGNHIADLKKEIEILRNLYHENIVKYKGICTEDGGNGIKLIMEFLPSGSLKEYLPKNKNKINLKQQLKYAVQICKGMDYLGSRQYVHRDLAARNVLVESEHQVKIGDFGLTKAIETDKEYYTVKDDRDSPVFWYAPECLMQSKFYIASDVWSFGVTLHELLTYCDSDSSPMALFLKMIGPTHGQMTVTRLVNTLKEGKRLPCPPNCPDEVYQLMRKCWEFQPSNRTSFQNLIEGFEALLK
Description: as §1, §2

JAK2 = target: T3, JAK2 (Homo sapiens, UniProt O60674); experiment: JAK kinase assay (HTRF, phosphorylation of synthetic peptide), JAK2; conditions: catalytic domain, ATP at Km (4 μM); read-out: JAK2 kinase inhibitory activity (EC50)
T3 construct: All four purified enzymes contain only the catalytic domain; His (N); purchased Carna Biosciences, Inc; host or cells: baculovirus expression system
T3 sequence (O60674 849-1124 limits assumed): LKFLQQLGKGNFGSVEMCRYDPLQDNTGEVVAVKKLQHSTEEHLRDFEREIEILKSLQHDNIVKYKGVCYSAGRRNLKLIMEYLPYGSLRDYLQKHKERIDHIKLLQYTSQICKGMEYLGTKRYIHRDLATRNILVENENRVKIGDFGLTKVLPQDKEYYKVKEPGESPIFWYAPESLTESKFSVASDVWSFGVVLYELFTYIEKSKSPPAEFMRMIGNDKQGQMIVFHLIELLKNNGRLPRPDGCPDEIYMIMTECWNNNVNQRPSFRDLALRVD
Description: as §1, §2

JAK3 = target: T4, JAK3 (Homo sapiens, UniProt P52333); experiment: JAK kinase assay (HTRF, phosphorylation of synthetic peptide), JAK3; conditions: catalytic domain, ATP at Km (2 μM); read-out: JAK3 kinase inhibitory activity (EC50)
T4 construct: All four purified enzymes contain only the catalytic domain; His (N); purchased Carna Biosciences, Inc; host or cells: baculovirus expression system
T4 sequence (P52333 822-1111 limits assumed): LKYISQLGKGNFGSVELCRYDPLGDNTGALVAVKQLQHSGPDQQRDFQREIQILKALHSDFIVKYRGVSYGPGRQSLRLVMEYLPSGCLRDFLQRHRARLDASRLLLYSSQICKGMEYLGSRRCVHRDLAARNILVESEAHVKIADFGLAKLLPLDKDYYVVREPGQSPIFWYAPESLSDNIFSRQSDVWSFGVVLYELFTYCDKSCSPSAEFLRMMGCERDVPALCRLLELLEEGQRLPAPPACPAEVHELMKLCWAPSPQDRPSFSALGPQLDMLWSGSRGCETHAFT
Description: as §1, §2

SMILES | EC50 (TYK2) [nM] | EC50 (JAK1) [nM] | EC50 (JAK2) [nM] | EC50 (JAK3) [nM]
CN(C(=O)CCC(F)(F)F)S(=O)(=O)N1CCN(c2ncnc3[nH]ccc23)CC12CC2 [Example 131, 4,4,4-trifluoro-N-methyl-N-[[5-(7H-pyrrolo[2,3-d]pyrimidin-4-yl)-5,8-diazaspiro[2.5]octan-8-yl]sulfonyl]butanamide] | < 100 | < 100 | < 100 | 100 to 500
CN(CC1CCN(C(=O)CCC#N)CC1)S(=O)(=O)N1CCN(c2ncnc3[nH]ccc23)CC12CC2 [Example 152, N-[[1-(3-cyanopropanoyl)-4-piperidyl]methyl]-N-methyl-5-(7H-pyrrolo[2,3-d]pyrimidin-4-yl)-5,8-diazaspiro[2.5]octane-8-sulfonamide] | > 500 | < 100 | < 100 | 100 to 500
CN(C1CCC1)S(=O)(=O)N1CCN(c2ncnc3[nH]ccc23)CC12CC2 [Example 98, N-cyclobutyl-N-methyl-5-(7H-pyrrolo[2,3-d]pyrimidin-4-yl)-5,8-diazaspiro[2.5]octane-8-sulfonamide] | 100 to 500 | < 100 | < 100 | 100 to 500
CCC(=O)CN(CCc1ccccc1)S(=O)(=O)N1CCN(c2ncnc3[nH]ccc23)CC12CC2 [Example 4, 7-(7H-Pyrrolo[2,3-d]pyrimidin-4-yl)-4,7-diaza-spiro[2.5]octane-4-sulfonic acid (2-oxo-butyl)-phenethyl-amide] | > 500 | < 100 | < 100 | 100 to 500
CN(Cc1ccccc1C#N)S(=O)(=O)N1CCN(c2ncnc3[nH]ccc23)CC12CC2 [Example 14, 7-(7H-Pyrrolo[2,3-d]pyrimidin-4-yl)-4,7-diaza-spiro[2.5]octane-4-sulfonic acid (2-cyano-benzyl)-methyl-amide] | < 100 | < 100 | < 100 | 100 to 500
CN(CC1CC(F)(F)C1)S(=O)(=O)N1CCN(c2ncnc3[nH]ccc23)CC12CC2 [Example 85, N-[(3,3-difluorocyclobutyl)methyl]-N-methyl-5-(7H-pyrrolo[2,3-d]pyrimidin-4-yl)-5,8-diazaspiro[2.5]octane-8-sulfonamide] | < 100 | < 100 | < 100 | < 100
CN(OCc1ccccc1)S(=O)(=O)N1CCN(c2ncnc3[nH]ccc23)CC12CC2 [Example 174, N-benzyloxy-N-methyl-5-(7H-pyrrolo[2,3-d]pyrimidin-4-yl)-5,8-diazaspiro[2.5]octane-8-sulfonamide] | 100 to 500 | < 100 | < 100 | 100 to 500
CN(C1CNC1)S(=O)(=O)N1CCN(c2ncnc3[nH]ccc23)CC12CC2 [Int 50] | > 500 | < 100 | < 100 | 100 to 500
CN(CCn1cccn1)S(=O)(=O)N1CCN(c2ncnc3[nH]ccc23)CC12CC2 [Example 66, N-methyl-N-(2-pyrazol-1-ylethyl)-5-(7H-pyrrolo[2,3-d]pyrimidin-4-yl)-5,8-diazaspiro[2.5]octane-8-sulfonamide] | 100 to 500 | < 100 | < 100 | < 100
O=S(=O)(N(CCn1ccnc1)C1CCC1)N1CCN(c2ncnc3[nH]ccc23)CC12CC2 [Example 104, N-cyclobutyl-N-(2-imidazol-1-ylethyl)-5-(7H-pyrrolo[2,3-d]pyrimidin-4-yl)-5,8-diazaspiro[2.5]octane-8-sulfonamide] | 100 to 500 | < 100 | < 100 | 100 to 500
CN(C[C@H]1CCCN1)S(=O)(=O)N1CCN(c2ncnc3[nH]ccc23)CC12CC2 [Int 51] | > 500 | 100 to 500 | 100 to 500 | > 500
CC(C)N(CCO)S(=O)(=O)N1CCN(c2ncnc3[nH]ccc23)CC12CC2 [Example 97, N-(2-hydroxyethyl)-N-isopropyl-5-(7H-pyrrolo[2,3-d]pyrimidin-4-yl)-5,8-diazaspiro[2.5]octane-8-sulfonamide] | > 500 | < 100 | < 100 | 100 to 500
O=S(=O)(N(CCc1ccccc1)CC1CCC1)N1CCN(c2ncnc3[nH]ccc23)CC12CC2 [Example 3, 7-(7H-Pyrrolo[2,3-d]pyrimidin-4-yl)-4,7-diaza-spiro[2.5]octane-4-sulfonic acid cyclobutyl methyl-phenethyl-amide] | > 500 | 100 to 500 | < 100 | 100 to 500
CN(CC1CCN(C(=O)CCC#N)C1)S(=O)(=O)N1CCN(c2ncnc3[nH]ccc23)CC12CC2 (centres unmarked) [Example 126, N-[[1-(3-cyanopropanoyl)pyrrolidin-3-yl]methyl]-N-methyl-5-(7H-pyrrolo[2,3-d]pyrimidin-4-yl)-5,8-diazaspiro[2.5]octane-8-sulfonamide] | > 500 | < 100 | < 100 | 100 to 500
CN(CC1CCCNC1)S(=O)(=O)N1CCN(c2ncnc3[nH]ccc23)CC12CC2 (centres unmarked) [Int 27] | > 500 | 100 to 500 | 100 to 500 | > 500
O=S(=O)(N(CCc1ccccc1)CC1CCCCC1)N1CCN(c2ncnc3[nH]ccc23)CC12CC2 [Example 8, 7-(7H-Pyrrolo[2,3-d]pyrimidin-4-yl)-4,7-diaza-spiro[2.5]octane-4-sulfonic acid cyclohexylmethyl-phenethyl-amide] | > 500 | > 500 | > 500 | > 500
CCOC(=O)CN(CCc1ccccc1)S(=O)(=O)N1CCN(c2ncnc3[nH]ccc23)CC12CC2 [Example 46, {Phenethyl-[7-(7H-pyrrolo[2,3-d]pyrimidin-4-yl)-4,7-diaza-spiro[2.5]octane-4-sulfonyl]-amino}-acetic acid ethyl ester] | > 500 | < 100 | < 100 | 100 to 500
CN(C[C@H]1CCCN1C(=O)C(O)CO)S(=O)(=O)N1CCN(c2ncnc3[nH]ccc23)CC12CC2 (stereo partly drawn) [Example 186, N-[[(2R)-1-(2,3-dihydroxypropanoyl)pyrrolidin-2-yl]methyl]-N-methyl-5-(7H-pyrrolo[2,3-d]pyrimidin-4-yl)-5,8-diazaspiro[2.5]octane-8-sulfonamide] | < 100 | < 100 | < 100 | < 100
CC(C)(C)OC(=O)N(CCCS(C)(=O)=O)S(=O)(=O)N1CCN(c2ncnc3[nH]ccc23)CC12CC2 [Example 196, tert-butyl N-(3-methylsulfonylpropyl)-N-[[5-(7H-pyrrolo[2,3-d]pyrimidin-4-yl)-5,8-diazaspiro[2.5]octan-8-yl]sulfonyl]carbamate] | > 500 | 100 to 500 | 100 to 500 | > 500
CN(C[C@@H]1CCCN1C=O)S(=O)(=O)N1CCN(c2ncnc3[nH]ccc23)CC12CC2 [Example 191, N-[[(2S)-1-formylpyrrolidin-2-yl]methyl]-N-methyl-5-(7H-pyrrolo[2,3-d]pyrimidin-4-yl)-5,8-diazaspiro[2.5]octane-8-sulfonamide] | 100 to 500 | < 100 | < 100 | < 100
